Tests used:
Experiment in all cases: TMT LC-MSMS of 11-labelled proteins
Type in all cases: cell-based
[1] = target: Endoplasmin (HSP90B1) (Homo sapiens, UniProt P14625)
[2] = target: T1, Folate transporter 1 (SLC19A1) (Homo sapiens, UniProt P41440)
T1 sequence (P41440 1-591): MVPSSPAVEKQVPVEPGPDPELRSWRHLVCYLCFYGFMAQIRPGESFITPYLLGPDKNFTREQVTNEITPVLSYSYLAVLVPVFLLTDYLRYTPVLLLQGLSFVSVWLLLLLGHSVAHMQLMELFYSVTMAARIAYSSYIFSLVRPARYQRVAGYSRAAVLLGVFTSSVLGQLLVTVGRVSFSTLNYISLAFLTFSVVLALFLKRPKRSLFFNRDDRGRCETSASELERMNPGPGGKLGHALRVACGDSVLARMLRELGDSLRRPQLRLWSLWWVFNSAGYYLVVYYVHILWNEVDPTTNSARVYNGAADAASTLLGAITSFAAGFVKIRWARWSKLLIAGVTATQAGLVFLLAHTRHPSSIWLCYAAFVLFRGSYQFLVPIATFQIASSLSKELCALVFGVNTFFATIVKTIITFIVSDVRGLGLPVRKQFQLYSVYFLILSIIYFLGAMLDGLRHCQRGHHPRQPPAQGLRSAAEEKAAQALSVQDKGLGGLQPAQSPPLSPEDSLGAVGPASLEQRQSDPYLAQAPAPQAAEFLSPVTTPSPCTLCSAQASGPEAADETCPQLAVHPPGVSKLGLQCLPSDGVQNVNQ

[3] = target: T2, Isoform 1 of Voltage-dependent anion-selective channel protein 2 (VDAC2) (Homo sapiens, UniProt P45880)
T2 sequence (P45880 12-294 limits assumed): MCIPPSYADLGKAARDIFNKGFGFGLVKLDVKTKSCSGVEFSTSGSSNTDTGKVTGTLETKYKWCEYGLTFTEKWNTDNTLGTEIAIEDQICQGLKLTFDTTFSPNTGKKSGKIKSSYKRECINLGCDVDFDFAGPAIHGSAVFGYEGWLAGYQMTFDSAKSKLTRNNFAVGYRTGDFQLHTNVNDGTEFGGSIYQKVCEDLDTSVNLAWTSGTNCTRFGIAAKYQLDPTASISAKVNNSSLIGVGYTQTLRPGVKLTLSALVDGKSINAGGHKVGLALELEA

[4] = sheet Exp1, SKBR3 cells, 11 0.5 µM 3 h vs DMSO
[5] = sheet Exp1, SKBR3 cells, 11 0.5 µM 3 h vs with PU-H71 10 µM
[6] = sheet Merged, SKBR3 cells, 11 0.5 µM 3 h vs DMSO
[7] = sheet Merged, SKBR3 cells, 11 0.5 µM 3 h vs with PU-H71 10 µM

Endoplasmin (HSP90B1), sequence (P14625 22-803): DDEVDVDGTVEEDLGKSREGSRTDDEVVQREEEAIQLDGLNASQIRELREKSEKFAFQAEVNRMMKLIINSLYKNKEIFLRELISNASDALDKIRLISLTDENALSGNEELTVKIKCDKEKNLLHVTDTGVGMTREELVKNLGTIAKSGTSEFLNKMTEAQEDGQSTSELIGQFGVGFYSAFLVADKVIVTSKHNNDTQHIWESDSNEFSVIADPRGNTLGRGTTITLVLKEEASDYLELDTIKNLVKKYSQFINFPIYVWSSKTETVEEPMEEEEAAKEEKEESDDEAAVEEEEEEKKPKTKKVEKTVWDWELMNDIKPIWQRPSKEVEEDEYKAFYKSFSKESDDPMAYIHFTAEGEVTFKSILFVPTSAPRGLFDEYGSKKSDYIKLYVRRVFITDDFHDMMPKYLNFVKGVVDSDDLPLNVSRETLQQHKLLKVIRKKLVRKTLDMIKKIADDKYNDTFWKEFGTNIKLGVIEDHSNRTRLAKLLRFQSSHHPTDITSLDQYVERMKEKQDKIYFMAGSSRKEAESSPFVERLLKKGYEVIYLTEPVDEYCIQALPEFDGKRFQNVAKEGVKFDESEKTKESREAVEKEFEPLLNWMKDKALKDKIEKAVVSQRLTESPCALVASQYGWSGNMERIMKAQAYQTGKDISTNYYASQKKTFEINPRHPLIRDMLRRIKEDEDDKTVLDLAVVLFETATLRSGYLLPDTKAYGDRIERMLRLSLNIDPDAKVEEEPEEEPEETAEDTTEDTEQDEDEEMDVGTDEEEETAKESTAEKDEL

Abundance Ratio: (11) / (11 with PU-H71) ([1]; Exp3, HSP90B1): 1.101
Abundance Ratio: (11) / (DMSO) ([1]; Exp3, HSP90B1): 2.844
Abundances (Grouped): 11 ([1]; Exp3, HSP90B1): 158.7
Abundances (Grouped): 11 with PU-H71 ([1]; Exp3, HSP90B1): 144.1
Abundance Ratio: (11) / (DMSO) [1, 4]: 6.226
Abundance Ratio: (11) / (11 with PU-H71) [1, 5]: 1.266
Abundance Ratio: (11) / (11 with PU-H71) ([1]; sheet Exp2, HSP90B1): 0.932
Abundance Ratio: (11) / (DMSO) ([1]; sheet Exp2, HSP90B1): 2.232
Abundances (Grouped): 11 ([1]; sheet Exp2, HSP90B1): 31.7
Abundances (Grouped): 11 with PU-H71 ([1]; sheet Exp2, HSP90B1): 34
Abundance Ratio: (11) / (DMSO) [1, 6]: 6.226
Abundance Ratio: (11) / (11 with PU-H71) [1, 7]: 1.266
Abundance Ratio: (11) / (11 with PU-H71) ([2]; Exp3, SLC19A1): 0.875
Abundance Ratio: (11) / (DMSO) ([2]; Exp3, SLC19A1): 5.164
Abundances (Grouped): 11 ([2]; Exp3, SLC19A1): 56.8
Abundances (Grouped): 11 with PU-H71 ([2]; Exp3, SLC19A1): 64.9
Abundance Ratio: (11) / (11 with PU-H71) ([2]; sheet Exp2, SLC19A1): 1.054
Abundance Ratio: (11) / (DMSO) ([2]; sheet Exp2, SLC19A1): 3.79
Abundances (Grouped): 11 ([2]; sheet Exp2, SLC19A1): 111.8
Abundances (Grouped): 11 with PU-H71 ([2]; sheet Exp2, SLC19A1): 106.1
Abundance Ratio: (11) / (DMSO) [2, 6]: 4.595
Abundance Ratio: (11) / (11 with PU-H71) [2, 7]: 0.985
Abundance Ratio: (11) / (11 with PU-H71) ([3]; Exp3, VDAC2): 0.617
Abundance Ratio: (11) / (DMSO) ([3]; Exp3, VDAC2): 3.942
Abundances (Grouped): 11 ([3]; Exp3, VDAC2): 149
Abundances (Grouped): 11 with PU-H71 ([3]; Exp3, VDAC2, with PU-H71): 241.6
Abundance Ratio: (11) / (DMSO) [3, 4]: 2.647
Abundance Ratio: (11) / (11 with PU-H71) [3, 5]: 0.676
Abundance Ratio: (11) / (DMSO) [3, 6]: 2.786
Abundance Ratio: (11) / (11 with PU-H71) [3, 7]: 0.688
Compound: CC(=O)Oc1ccc2c(c1)Oc1cc(OC(C)=O)ccc1C21OC(=O)c2cc(C(=O)NCCOCCOCCNC(=O)CCCC(=O)N(CC#N)S(=O)(=O)c3ccc(C(=O)NCCCn4c(Sc5cc6c(cc5I)OCO6)nc5c(N)ncnc54)cc3)ccc21 [compound 11]
